Test results as given in patent US20250066379A1, “ANTIMALARIAL AGENTS” (Merck Sharp & Dohme LLC, priority 2021, published 2025).

System: parasite
Assay: Parasite LDH growth assay (Parasite Assay)
Assay type: cell-based, Plasmodium falciparum
Conditions: ring stage parasites, 72 hours growth at 37° C., LDH readout of parasite growth
Experimental: Assessing Antiparasite Potency in a Parasite LDH Growth Assay (Parasite Assay) The parasite stock was maintained at 4% haematocrit in RPMI-Hepes media 30 buffered with sodium bicarbonate and supplemented with 5% heat inactivated human serum and 0.5% albumax. Approximately 42 hours prior to the potency assay being set up, parasites were synchronized with 5% sorbitol to select for ring stage parasites. On the day of assay set up, a blood smear of the parasite culture was Giemsa stained and counted. The parasitemia was 35 adjusted to 0.7% rings and the haematocrit was diluted to 2% in RPMI-Hepes media buffered with sodium bicarbonate and supplemented with 5% heat inactivated human serum and 0.5% albumax. 30 ul of diluted parasites are then added into 10 μl of media+compound in pre-prepared Greiner TC assay plates. Parasite assay plates were placed in gassed humidified boxes in single layer and allowed to incubate at 37° C. for 72 hours. After 72 hours growth, assay plates are sealed with parafilm and frozen flat, in single file at −80° C. overnight. On the following day, assay plates were allowed to thaw at room temperature for 4 hours to which an LDH assay was performed to measure parasite growth.

Row | SMILES | EC50 [nM] | EC50 (Plasmodium falciparum, 72 h) [nM]
1 | CCC12CCCCCCCc3ccc4c(c3)OC(C)(C)C[C@@H]4NC(=O)c3ccc4c(c3)[C@@H](CCO4)N(C(=N)N1)C(=O)C2 (racemic) [Example 24A, rac-(1R,21S)-5-ethyl-3-imino-19,19-dimethyl-18,28-dioxa-2,4,22-triazahexacyclo[22. 6.2.22,5.113,17.016, 21.027,31] pentatriaconta-13(33),14,16,24,26, 31-hexaene-23,35-dione] | 5.4 | –
2 | CCC12CCCCCCCc3ccc4c(c3)OC(C)(C)C[C@@H]4NC(=O)c3ccc4c(c3)[C@@H](CCO4)N(C(=N)N1)C(=O)C2 (racemic) [Example 24B, rac-(1R,21S)-5-ethyl-3-imino-19,19-dimethyl-18,28-dioxa-2,4,22-triazahexacyclo[22. 6.2.22,5.113,17.016, 21.027,31] pentatriaconta-13(33),14,16,24,26, 31-hexaene-23,35-dione] | 2 | –
3 | COC[C@@H]1COc2ccc3cc2[C@@H]1N1C(=N)NC(C)(CCCCCc2ccc4c(c2)[C@H](CC(C)(C)O4)NC3=O)CC1=O (mixture of isomers) [Example 25A, rac-(1R,18S,27R)-3-imino-27-(methoxymethyl)-5,16,16-trimethyl-15,25-dioxa-2,4,19-triazahexacyclo[19. 6.2.22,5.211,14.013, 18.024,28] tritriaconta-11,13,21,23,28,30-hexaene-20,33-dione] | 23 | –
4 | COC[C@@H]1COc2ccc3cc2[C@@H]1N1C(=N)NC(C)(CCCCCc2ccc4c(c2)[C@H](CC(C)(C)O4)NC3=O)CC1=O (mixture of isomers) [Example 25B, rac-(1R,18S,27R)-3-imino-27-(methoxymethyl)-5,16,16-trimethyl-15,25-dioxa-2,4,19-triazahexacyclo[19. 6.2.22,5.211,14.013, 18.024,28] tritriaconta-11,13,21,23,28,30-hexaene-20,33-dione] | 0.7 | –
5 | CCC12CCC/C=C/c3ccc4c(c3)[C@H](CC(C)(C)O4)NC(=O)c3ccc4c(c3)[C@@H]([C@H](COC)CO4)N(C(=N)N1)C(=O)C2 (mixture of isomers) [Example 26A, rac-(1R,9E,18S,27R)-5-ethyl-3-imino-27-(methoxymethyl)-16,16-dimethyl-15,25-dioxa-2,4,19-triazahexacyclo[19. 6.2.22,5.211,14.013, 18.024,28] tritriaconta-9,11,13,21,23,28,30-heptaene-20,33-dione] | 190 | –
6 | CCC12CCC/C=C/c3ccc4c(c3)[C@H](CC(C)(C)O4)NC(=O)c3ccc4c(c3)[C@@H]([C@H](COC)CO4)N(C(=N)N1)C(=O)C2 (mixture of isomers) [Example 26B, rac-(1R,9E,18S,27R)-5-ethy1-3-imino-27-(methoxymethyl)-16,16-dimethyl-15,25-dioxa-2,4,19-triazahexacyclo[19. 6.2.22,5.211,14.013, 18.024,28] tritriaconta-9,11,13,21,23,28,30-heptaene-20,33-dione] | 7.4 | –
7 | CCC12CCCCCc3ccc4c(c3)[C@@H](NC(=O)c3ccc5c(c3)[C@@H]([C@H](COC)CO5)N(C(=N)N1)C(=O)C2)[C@H](O)C4 (single isomer, unassigned) [Example 15A] | 9.2 | –
8 | CCC12CCCCCc3ccc4c(c3)[C@@H](NC(=O)c3ccc5c(c3)[C@@H]([C@H](COC)CO5)N(C(=N)N1)C(=O)C2)[C@H](O)C4 (single isomer, unassigned) [Example 15B] | 81 | –
9 | CC[C@]12CCCC(C)c3ccc4c(c3)[C@@H](NC(=O)c3ccc5c(c3)[C@@H](CCO5)N(C(=N)N1)C(=O)C2)[C@H](O)C4 (stereo partly drawn) [Example 1, (1R,5R,15R,16R)-5-ethyl-15-hydroxy-3-imino-9-methyl-23-oxa-2,4,17-triazahexacyclo[17.6.2.22,5.210,13.012,16.022,26]hentriaconta-10,12,19,21,26,28-hexaene-18,31-dione] | – | 2.7
10 | CC[C@]12CCCCCc3ccc4c(c3)[C@@H](NC(=O)c3ccc5c(c3)[C@@H](CCO5)N(C(=N)N1)C(=O)C2)[C@H](O)C4 [Example 2, (1R,5R,16R,17R)-5-ethyl-16-hydroxy-3-imino-24-oxa-2,4,18-triazahexacyclo[18.6.2.22,5.211,14.013,17.023,27]dotriaconta-11,13,20,22,27,29-hexaene-19,32-dione] | – | 11
11 | CC[C@]12CCCCc3ccc4c(c3)[C@H](CC(C)(C)O4)NC(=O)c3ccc4c(c3)[C@@H](CCO4)N(C(=N)N1)C(=O)C2 [Example 3A, (1R,5R,17S)-5-ethyl-3-imino-15,15-dimethyl-14,24-dioxa-2,4,18-triazahexacyclo[18.6.2.22,5.210,13.012,17.023,27]dotriaconta-10,12,20,22,27,29-hexaene-19,32-dione] | – | 0.2
12 | CC[C@@]12CCCCc3ccc4c(c3)[C@H](CC(C)(C)O4)NC(=O)c3ccc4c(c3)[C@@H](CCO4)N(C(=N)N1)C(=O)C2 [Example 3B, (1R,5S,17S)-5-ethyl-3-imino-15,15-dimethyl-14,24-dioxa-2,4,18-triazahexacyclo[18. 6.2.22,5.210,13.012, 17.023,27] dotriaconta-10,12,20,22,27,29-hexaene-19,32-dione] | – | 270
13 | CC[C@]12CCCCOc3ccc4c(c3)[C@H](CC(C)(C)O4)NC(=O)c3ccc4c(c3)[C@@H](CCO4)N(C(=N)N1)C(=O)C2 [Example 4, (1R,5R,18S)-5-ethyl-3-imino-16,16-dimethyl-10,15,25-trioxa-2,4,19-triazahexacyclo[19.6.2.22,5.211,14.013,18.024,28]tritriaconta-11,13,21,23,28,30-hexaene-20,33-dione] | – | 2
14 | CC[C@]12CCC/C=C/c3ccc4c(c3)[C@@H](NC(=O)c3ccc5c(c3)[C@@H](CCO5)N(C(=N)N1)C(=O)C2)[C@H](O)C4 [Example 5, (1R,5R,9E,16R, 17R)-5-ethyl-16-hydroxy-3-imino-24-oxa-2,4,18-triazahexacyclo[18. 6.2.22,5.211,14.013, 17.023,27] dotriaconta-9,11,13,20,22,27, 29-heptaene-19,32-dione] | – | 0.9
15 | CC[C@]12CCC/C=C\c3ccc4c(c3)[C@@H](NC(=O)c3ccc5c(c3)[C@@H](CCO5)N(C(=N)N1)C(=O)C2)[C@H](O)C4 [Example 6, (1R,5R,9Z,16R, 17R)-5-ethyl-16-hydroxy-3-imino-24-oxa-2,4,18-triazahexacyclo[18. 6.2.22,5.211,14.013, 17.023,27] dotriaconta-9,11,13,20,22,27, 29-heptaene-19,32-dione] | – | 2.8
16 | CC[C@]12CCC/C=C/c3ccc4c(c3)[C@H](CC(C)(C)O4)NC(=O)c3ccc4c(c3)[C@@H](CCO4)N(C(=N)N1)C(=O)C2 [Example 7, (1R,5R,9E,18S)-5-ethyl-3-imino-16,16-dimethyl-15,25-dioxa-2,4,19-triazahexacyclo[19. 6.2.22,5.211,14.013, 18.024,28] tritriaconta-9,11,13,21,23,28, 30-heptaene-20,33-dione] | – | 0.9
17 | CC[C@]12CCCCCc3ccc4c(c3)[C@H](CC(C)(C)O4)NC(=O)c3ccc4c(c3)[C@@H](CCO4)N(C(=N)N1)C(=O)C2 [Example 8, (1R,5R,18S)-5-ethyl-3-imino-16,16-dimethyl-15,25-dioxa-2,4,19-triazahexacyclo[19. 6.2.22,5.211,14.013, 18.024,28] tritriaconta-11,13,21,23,28,30-hexaene-20,33-dione] | – | 1.1
18 | CC[C@@]12CCCCCc3ccc4c(c3)[C@H](CC(C)(C)O4)NC(=O)c3ccc4c(c3)[C@@H](CCO4)N(C(=N)N1)C(=O)C2 [Example 9, (1R,5S,18S)-5-ethyl-3-imino-16,16-dimethyl-15,25-dioxa-2,4,19-triazahexacyclo[19. 6.2.22,5.211,14.013, 18.024,28] tritriaconta-11,13,21,23,28,30-hexaene-20,33-dione] | – | 76.5
19 | CC[C@]12CCC/C=C\Cc3ccc4c(c3)[C@H](CC(C)(C)O4)NC(=O)c3ccc4c(c3)[C@@H](CCO4)N(C(=N)N1)C(=O)C2 [Example 10, (1R,5R,9Z,19S)-5-ethyl-3-imino-17,17-dimethyl-16,26-dioxa-2,4,20-triazahexacyclo[20. 6.2.22,5.212,15.014, 19.025,29] tetratriaconta-9,12,14,22(30),23, 25(29),31-heptaene-21,34-dione] | – | 2.5
20 | CC[C@]12CCC/C=C/Cc3ccc4c(c3)OC(C)(C)C[C@@H]4NC(=O)c3ccc4c(c3)[C@@H](CCO4)N(C(=N)N1)C(=O)C2 [Example 11, (1R,5R,9E,20S)-5-ethyl-3-imino-18,18-dimethyl-17,27-dioxa-2,4,21-triazahexacyclo[21. 6.2.22,5.112,16.015, 20.026,30] tetratriaconta-9,12(32),13,15,23, 25,30-heptaene-22,34-dione] | – | 4.6
21 | CC[C@]12CCCCCCc3ccc4c(c3)[C@H](CC(C)(C)O4)NC(=O)c3ccc4c(c3)[C@@H](CCO4)N(C(=N)N1)C(=O)C2 [Example 12, (1R,5R,19S)-5-ethyl-3-imino-17,17-dimethyl-16,26-dioxa-2,4,20-triazahexacyclo[20. 6.2.22,5.212,15.014, 19.025,29] tetratriaconta-12,14,22(30),23, 25(29),31-hexaene-21,34-dione] | – | 1
22 | CC[C@@]12CCCCCCc3ccc4c(c3)OC(C)(C)C[C@@H]4NC(=O)c3ccc4c(c3)[C@@H](CCO4)N(C(=N)N1)C(=O)C2 [Example 13, (1R,5S,20S)-5-ethyl-3-imino-18,18-dimethyl-17,27-dioxa-2,4,21-triazahexacyclo[21. 6.2.22,5.112,16.015, 20.026,30] tetratriaconta-12(32),13,15,23,25, 30-hexaene-22,34-dione] | – | 22
